Measured values taken from publication PMC7459852, “Identification of 6-(piperazin-1-yl)-1,3,5-triazine as a chemical scaffold with broad anti-schistosomal activities” (Wellcome Open Research, 2020).
Like-named read-outs stand apart in the source and are kept apart here.

Columns and labels:
Schistosoma mansoni [1] = tested on: Schistosoma mansoni; design: method as in PMID 24037106; settings: cited from earlier work
Schistosoma mansoni [2] = tested on: Schistosoma mansoni; design: method as in PMID 24037106; settings: cited from earlier work; remark: listed apart in the source
S. mansoni schistosomula = assay: Schistosomula screens (Roboworm, phenotype and motility); assay type: cell-based, Schistosoma mansoni; settings: 72 h; for EC50: Schistosoma mansoni, dose response titrations (10 - 0.625 µM)
Experimental: Anthelmintic activity on the schistosomula stage of S. mansoni was evaluated using Roboworm, an integrated high-throughput, high content image analysis platform originally developed by Paveley et al. and subsequently used by our research group as previously described, [28], [50], [51]. Alternatively, the computer application Worminator can be used to assess motion of microscopic parasites such as the schistosomula stage of S. mansoni. Compounds (as single concentration or two-fold titrations) were prepared for screening in a 384-well plate (PerkinElmer, MA, USA), where solutions (1.6 mM, 0.5 μl) were wet stamped using the Biomek NX ^P liquid handling platform into Basch medium (20 μl). Negative (0.625% DMSO) and positive (Auranofin - AUR - at 10 µM final concentration in 0.625% DMSO) control wells were similarly prepared. Mechanically transformed schistosomula (about 120 parasites in 60 μl of Basch medium) were distributed into each treated well using a WellMate (Thermo Scientific, Loughborough, UK). Schistosomula/compound co-cultures were then incubated at 37°C for 72 h in a humidified atmosphere containing 5% CO 2. At 72 h, parasite/compound co-cultures were resuspended and tissue culture plates were imaged under the same conditions (37°C for 72 h in a humidified atmosphere containing 5% CO 2) using an ImageXpressXL high content imager (Molecular Devices, UK) with subsequent images processed for phenotype and motility as previously reported. Plate analysis returned a phenotype and motility score for each well and any scores below -0.15 and -0.35 (defined threshold anti-schistosomula values for phenotype and motility scores, respectively) defined a condition displaying anti-schistosomula activity. Compound screens were assessed based on the Z´ values (derived from the means and standard deviations of positive and negative controls) and those equal to or above 0.3 for both phenotype and motility were considered successful.
Phenotype and motility scores of each titration were used to generate dose response curves in GraphPad Prism 7.02 based on the corrected average score of the three replicates for each data point.

S. mansoni adult worms = assay: Adult worm screens (WormassayGP2 motility, egg count); assay type: cell-based, Schistosoma mansoni; settings: 72 h
Experimental: For compound screening, adult worms (three worm pairs/well for compound 7 and the hit compounds of set two; one worm pair/well for the hit compounds of set three) were transferred into wells of a 48-well tissue culture plate containing 1 ml of adult worm media. Adult worms were treated with compounds previously identified as hits at 10 µM on 72 h cultured schistosomula. Worms were dosed with an appropriate volume of 10 mM stock solution of each compound (in DMSO) to have a concentration range of 50 – 6.25 µM (up to 0.5% DMSO, primary screen of compound 7). Secondary screens were performed on the structural analogues of compound 7 (only the schistosomula hits at 10 µM) at a single concentration (12.5 µM) and compared to the same concentration of the parental compound (included in the screen as reference). DMSO (0.5%) and praziquantel (10 µM in 0.5% DMSO) were also included as negative and positive control treatments (both primary and secondary screens). Treated adult worms were incubated for 72 h in a humidified environment at 5% CO 2 at 37°C. Parasite motility after drug treatment was assessed by a digital image processing-based system (WormassayGP2, see Software availability) modified after Wormassay, [56], [57]. Egg production was assessed according to the methodology described by Edwards et al..

S. mansoni miracidia = assay: Miracidia to sporocyst transformation screens; assay type: cell-based, Schistosoma mansoni; settings: 10 µM, 48 h
Experimental: Following hatching of S. mansoni eggs, miracidia were incubated on ice for 15 min and then centrifuged at 700 x g for 5 min at 4°C. The miracidia pellet was then re-suspended in 5 ml of Chernin's balanced salt solution (CBSS), subjected to pelleting and two subsequent washes (all at 700 x g for 5 min at 4°C). Afterwards, the supernatant was carefully removed with a serological pipette and the miracidia-enriched pellet was resuspended with CBSS supplemented with 1 mg/ml each of glucose and trehalose and 500 µl of Penicillin-Streptomycin (containing 10,000 units penicillin and 10 mg streptomycin/ml, P4333, Sigma-Aldrich). In preparation for the screens, CBSS (250 µl) was aliquoted to each well of a 24-well plate followed by addition of each compound in DMSO (1 mM concentration in 1% DMSO) or DMSO alone (1%, negative control). Next, approximately 20-25 miracidia (in 250 µl of CBSS) were aliquoted to each well. […] Both preliminary and secondary screens were performed in duplicate on two separate occasions (two independent biological replicates). Miracidia were incubated for 48 h at 26°C before being evaluated using an Olympus inverted light microscope for morphological and behavioural changes differing from the control wells. Dead, partially transformed and fully transformed miracidia were enumerated in the DMSO control and the assay plates as previously described, [23], [59]. […] Absence of ciliated plates attached to the surface of the parasite and formation of sporocyst tegument defined the so-called “fully transformed” parasites.

[3] = MTT cytotoxicity assay on HepG2 cells; assay type: cell-based, Human; settings: human, HepG2 cells, MTT, 24 h; three dose response titrations (200 - 1 µM)
Experimental: (§1) Compound cytotoxicity on Human Hepatocyte Carcinoma (HepG2) cells (85011430, Sigma Aldrich) was elucidated by the MTT (3-(4,5-dimethylthiazol-2-yl)-2,5-diphenyltetrazolium bromide) tetrazolium reduction assay as previously described, [28], [50]. Briefly, HepG2 cells were seeded at a density of 20,000 per well in 96-well black, clear bottom falcon plate in modified BME medium (50 μl; containing 1% antibiotic/mycotic (Sigma-Aldrich, Gillingham, UK), 1% 200 mM L-glutammine (Gibco, Paisley, UK), 1% MEM non-essential amino acid solution (Gibco, Paisley, UK), and 10% fetal bovine serum (Gibco, Paisley, UK)). HepG2 plates seeded for cytotoxicity screens were treated with compounds 24 h post-seeding. Each compound was tested at 200, 100, 75, 50, 20, 10 and 1 µM; each concentration was assayed in triplicate. Blank wells (no cells), as well as positive (1% v/v Triton X-100, X100, Sigma-Aldrich) and negative (1.25% v/v DMSO or media only) controls, were included in each plate. After addition of compounds, each plate was then incubated for a further 20 h before application of MTT reagent for assessment of compound cytotoxicity (4 h incubation with MTT for a total 24 h cell-drug incubation). The absorbance reading at 570 nm was measured with a POLARstar Omega (BMG Labtech, UK) microtiter plate reader. Dose response curves were generated in GraphPad Prism 7.02 based on the corrected average absorbance of the three replicates for each concentration point.

HepG2 cells = assay: MTT cytotoxicity assay on HepG2 cells; assay type: cell-based, Human; settings: dose response titration
Experimental: as §1

EC50 (S. mansoni schistosomula; read-out: Schistosomula EC50 Motility)	EC50 (S. mansoni schistosomula; read-out: Schistosomula EC50 Phenotype)	SMILES	in vitro anti-schistosomal activity (Schistosoma mansoni [1])	in vivo anti-schistosomal activity (Schistosoma mansoni [2])	anti-schistosomula activity (hit on phenotype and motility) (S. mansoni schistosomula; 50 µM)	adult worm motility and oviposition (S. mansoni adult worms; 6.25 µM, compared to compound 7)	adult worm egg production (S. mansoni adult worms; 12.5 µM)	adult worm motility compared to compound 7 (S. mansoni adult worms; 12.5 µM)	effect on miracidia (S. mansoni miracidia)	CC50 at 24 h [3]	cytotoxicity on HepG2 cells (in words) (HepG2 cells)
–	–	Cc1ccc(NC(=O)c2ccc(CN3CCN(C)CC3)cc2)cc1Nc1nccc(-c2cccnc2)n1 [Imatinib]	potent in vitro anti-schistosomal activity	lost in vivo	–	–	–	–	–	–	–
4.93 µM	3.47 µM	CC(=O)Nc1ccc(S(=O)(=O)N2CCN(c3nc(N4CCCCC4)nc(N4CCCCC4)n3)CC2)cc1 [Compound 20]	–	–	active at the highest concentration	strong anthelmintic activities	greater potency than compound 7	greater potency than compound 7	readily killed miracidia	> 100 µM	not toxic to this cell line, except for concentrations above 100 µM
